From patent US7875601B2, “Cancer treatment with epothilones” (Novartis AG, priority 1998, dated 2011)
“Also recorded” adds a separate entry of the source.

How the values were obtained:
[1] = test system: human estrogen-dependent ZR-75-1 breast tumors; assay: Antitumor effect against s.c. transplanted ZR-75-1 breast tumors; assay type: in vivo, female BALB/c nude mice
Procedure: Female or male BALB/c nu/nu (nude) mice are kept under sterile conditions (10 to 12 mice per Type III cage) with free access to food and water. Mice weigh between 20 and 25 grams at the time of tumor implantation. Tumors are established by subcutaneous injection of cells (minimum 2×10^6 cells in 100 μl PBS or medium) in carrier mice (4-8 mice per cell line). The resulting tumors are serially passaged for a minimum of three consecutive transplantations prior to start of treatment. Tumor fragments (approx. 25 mg) are implanted s.c. into the left flank of animals with a 13-gauge trocar needle while the mice are exposed to Forene (Abbott, Switzerland) anesthesia.
Tumor growth and body weights are monitored once or twice weekly. All treatments are administered intravenously (i.v.) and are initiated when a mean tumor volume of approximately 100 to 250 mm^3 is attained, depending upon the tumor type. Tumor volumes are determined using the formula […] (see Cancer Chemother. Pharmacol. 24:148-154, [1989]). Treatments with epothilone B vary the dose and the frequency of administration. Comparator agents are administered according to previously determined optimal treatment regimens. In addition to presenting changes in tumor volumes over the course of treatment, antitumor activity is expressed as T/C % (mean increase of tumor volumes of treated animals divided by the mean increase of tumor volumes of control animals multiplied by 100). Tumor. regression (%) represents the smallest mean tumor volume compared to the mean tumor volume at the start of treatment, according to the formula Regression (%)=(1−Vend/Vstart)×100(Vend=final mean tumor volume, Vstart=mean tumor volume at the start of treatment. Any animals in which the tumor has reached a size exceeding approximately 1.5 to 2.5 cm^3 are sacrificed. Details can be found below.

[2] = test system: KB-8511 (Epidermoid, MDR); assay: Antiproliferative assay, KB-8511; assay type: cell-based, human
Procedure: The human epidermal (mouth) carcinoma cell line KB-8511 (a P-gp over-expressing cell line derived from the epidermoid (mouth) KB-31 carcinoma cell line) is obtained from Dr. R. M. Baker, Roswell Park Memorial Institute (Buffalo, N.Y., USA) (for description see Akiyama et al., Somat. Cell. Mol. Genetics 11, 117-126 (1985) and Fojo A., et al., Cancer Res. 45, 3002-3007 (1985)) and is cultured as previously described (Meyer, T., et al., Int. J. Cancer 43 851-856 (1989)).
(§1) Antiproliferative assays are performed as previously described (Int. J. Cancer 43, 851-6 (1989)). Briefly, cells are seeded at 1.5×10^3 cells/well into 96-well microtiter plates and incubated overnight. Compounds are added in serial dilutions on day 1. The plates are then incubated for an additional 2 to 5 days, allowing for at least one cell doubling (cell line dependent), after which the cells are fixed with 3.3% v/v glutaraldehyde, washed with water and stained with 0.05% w/v methylene blue. After washing, the dye is eluted with 3% v/v HCl and the optical density measured at 665 nm with a SpectraMax 340 (Bucherer, Basel, Switzerland). IC50 values are determined by a computerized system (SoftPro, Bucherer, Basel, Switzerland) using the formula (OD test−OD start)/(OD control−OD start)×100. IC50 is defined as the drug concentration which leads to 50% of cells per well compared to control cultures (100%) at the end of incubation period.

[3] = test system: ZR-75-1 (Breast); assay: Antiproliferative assay, ZR-75-1; assay type: cell-based, human; details: ZR-75-1, 5 d exposure, mean ± SD, n = 3; read-out: IC50 for growth inhibition
Procedure: as §1

[4] = Two-week intravenous toxicity study in mice; assay type: in vivo, normal female BALB/c mice
Procedure: In order to assess the sub-chronic intravenous toxicity of epothilone B, a non-GLP two-week i.v. toxicity study in non-tumor bearing, normal female BALB/c mice is conducted, involving analysis of mortality, clinical signs, body weight, food consumption, hematology, clinical biochemistry, urinalysis, and organ weights as well as macro and microscopic examinations. The study is based on two different dosing regiments of epothilone B of 3 mg/kg and 10 mg/kg, respectively, administered on days 1 and 8 (8 animals per group). Half of the animals are killed on day 15 (main group) and necropsy is performed. For the other half (recovery group) a recovery period of 5 weeks is allowed after administration of the second dose before sacrifice and subsequent necropsy on day 43.

[5] = 1 mg/kg, i.v. every 7 days, day 47
[6] = 2 mg/kg, i.v. every 7 days, day 47
[7] = 4 mg/kg, i.v. every 7 days, day 47
[8] = 4 mg/kg, i.v. every 14 days, day 47
[9] = 3 mg/kg i.v. on days 1 and 8, day 15
[10] = 10 mg/kg i.v. on days 1 and 8, day 15
[11] = both dose levels (3 and 10 mg/kg), day 15

C/C(=C\c1csc(C)n1)[C@@H]1C[C@@H]2O[C@]2(C)CCC[C@H](C)[C@H](O)[C@@H](C)C(=O)C(C)(C)[C@@H](O)CC(=O)O1 [epothilone B]
% Body Weight Change [1, 5]: 2 ± 5% | Regression [1, 5]: none | Survival (No. alive/total) [1, 5]: 4/6 | T/C (%) [1, 5]: 86% | Δ Body Weight [1, 5]: 0.3 ± 1.2 g | Δ Tumor Volume (mm^3) [1, 5]: 393 ± 135 mm^3 | % Body Weight Change [1, 6]: −14 ± 6% | Regression [1, 6]: none | Survival (No. alive/total) [1, 6]: 5/6 | T/C (%) [1, 6]: 40% | Δ Body Weight [1, 6]: -3.5 ± 1.6 g | Δ Tumor Volume (mm^3) [1, 6]: 227 ± 76 mm^3 | T/C (%) ([1]; 4 mg/kg, i.v. every 7 days (days 19, 26 and 33), day 47): 1% | % Body Weight Change [1, 7]: −5 ± 3% | Survival (No. alive/total) [1, 7]: 3/6 | Δ Body Weight [1, 7]: -1.2 ± 0.6 g | Δ Tumor Volume (mm^3) [1, 7]: 29 ± 16 mm^3 | Regression ([1]; 4 mg/kg, i.v. every 7 days, transient): −8% | T/C (%) ([1]; 4 mg/kg, i.v. every 14 days (days 19 and 33), day 47): 46% | % Body Weight Change [1, 8]: −7 ± 5% | Regression [1, 8]: none | Survival (No. alive/total) [1, 8]: 4/6 | Δ Body Weight [1, 8]: -1.6 ± 1.1 g | Δ Tumor Volume (mm^3) [1, 8]: 208 ± 86 mm^3 | IC50 ([2]; KB-8511, 2 d exposure, mean ± SD, read-out: IC50 for growth inhibition): 0.89 ± 0.47 nM | relative resistance, IC50 (resistant line)/IC50 (parental line) ([2]; KB-8511 vs parental line): (1.25) | IC50 [3]: 0.64 ± 0.42 nM | body weight loss ([4]; 3 mg/kg i.v. on days 1 and 8): only apparent in the second week | atrophy of the thymus [4, 9]: moderate | number of leukocytes, especially neutrophils and lymphocytes [4, 9]: reduction in the number of leukocytes | sternal bone marrow histology [4, 9]: minimal to slight erythroid and myeloid atrophy | organ weights at the end of the recovery period ([4]; 3 mg/kg i.v. on days 1 and 8, day 43): comparable to those of control animals | mortalities throughout the treatment period ([4]; 3 mg/kg i.v. on days 1 and 8, days 1-14): No mortalities | survival of the recovery group ([4]; 3 mg/kg i.v. on days 1 and 8, up to day 43): all animals of the recovery group survive until the end of the study; also recorded: tolerated without mortality | hematological parameters at the end of the recovery period ([4]; 3 mg/kg recovery group, day 43): normal for two out of the four animals | survival of the recovery group ([4]; 10 mg/kg i.v. on days 1 and 8): all animals of the recovery group have to be sacrificed prematurely on day 19; also recorded: death (or sacrifice) of all treated animals | atrophy of the thymus [4, 10]: marked | number of leukocytes, especially neutrophils and lymphocytes [4, 10]: reduction in the number of leukocytes | spleen histology [4, 10]: minimal lymphoid atrophy | sternal bone marrow histology [4, 10]: minimal to slight myeloid hypoplasia | mortalities throughout the treatment period ([4]; 10 mg/kg i.v. on days 1 and 8, days 1-14): No mortalities | body weight loss ([4]; 10 mg/kg i.v. on days 1 and 8, first and second week): Body weight loss is observed for all animals | clinical chemistry profile ([4]; 3 and 10 mg/kg i.v. on days 1 and 8): Only minor changes | intestinal mucosa (small and large intestine) histology [4, 11]: Minimal single cell necrosis | organ weights [4, 11]: pronounced changes in thymus, spleen, and uterus weights
